Entries after “also recorded” stand apart in the source; their conditions may differ. Ends that are not written are not given here.
Columns and labels:
[1] = biological target: T1, TGF-β1 (Mus musculus, UniProt P04202); assay: Model of acute liver damage induced by CCl4, type I collagen mRNA by real time PCR; format: in vivo, mice
T1 construct: from tissue; host or cells: liver of Balb/C mice (CCl4 model); lung of C57BL/6 mice (bleomycin model)
How it was run: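 Female Balb/C mice (25–30 g) received a single oral dose of CCl4 at 2 µl/g body weight in corn oil (1:1). Peptide was given at 50 µg in 500 µl of 1% saline in DMSO every 24 h. At 72 h, liver type I collagen mRNA was quantified by real-time PCR against corn-oil controls.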

[2] = biological target: T2, TGF-β1 (Homo sapiens, UniProt P01137); assay: α-SMA expression induced by TGF-β1 in IMR-90 lung fibroblasts, western blot; format: cell-based; set-up: purchased R&D Systems; host or cells: added to IMR-90 human lung fibroblasts; conditions: IMR-90 cells, 5 ng/ml TGF-β1, peptide 100 μg/ml, 24 hours
Description: IMR-90 human lung fibroblasts (ATCC, Manassas, Va.) were cultured in EMEM medium (Cambrex, Belgium) supplemented with 10% fetal bovine serum (FBS), 1 mM sodium pyruvate, 0.1 mM nonessential amino acids, 100 U/ml penicillin and 100 μg/ml streptomycin (Gibco BRL, UK). For experiments, 6×10^4 cells/well were cultured in 6-well plates in 2 ml of medium and when they were 80% confluent, medium was replaced with serum-free EMEM for 48 h to induce quiescence. TGF-β1 (5 ng/ml) and P17 (100 μg/ml) were co-incubated for 90 min at 37° C. to allow binding of both molecules before addition to cell cultures. Quiescent cells were then stimulated with TGF-β1 and/or P17 for up to 6 or 24 h. After these incubation periods, fibroblasts were harvested for gene and protein analysis, respectively.
To assess alpha-Smooth Muscle Actin (αSMA) expression, IMR-90 fibroblasts were lysed with RIPA buffer containing 10 U/ml leupeptin, 10 U/ml pepstatin, 1 mM phenylmethanesulfonylfluoride (PMSF), 1 mM Na3VO4 and 1 mM NaF. […] Membranes were analyzed for expression of αSMA protein using anti-αSMA monoclonal antibody (Sigma-Aldrich) at a dilution of 1:2000 and horseradish peroxidase-labeled anti-mouse IgG (Sigma-Aldrich). Expression of actin was detected using anti-actin monoclonal antibody (Sigma-Aldrich) (1:2000 dilution) and horseradish peroxidase-labeled anti-rabbit IgG (Sigma-Aldrich). […]
Target sequence in this assay (P01137 279-390 limits assumed): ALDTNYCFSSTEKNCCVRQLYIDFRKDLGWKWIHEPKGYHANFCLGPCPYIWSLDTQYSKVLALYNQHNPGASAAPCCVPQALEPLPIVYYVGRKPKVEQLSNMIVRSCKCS

[3] = biological target: T2, TGF-β1; assay: Biopanning of phage-displayed 15-aa peptide library on biotinylated TGF-β1, number of colonies per sequence; format: binding; set-up: purchased Roche; host or cells: added to Mv-1-Lu (CCL-64) mink lung epithelial cells; conditions: clones carrying the sequence among 108 colonies after the last biopanning cycle; approximate indication of affinity for TGF-β1
Source text: These libraries comprise a plurality of filamentous bacteriophages (M13), each one containing a peptide genetically fused to a protein of the virus envelope—in this case bound to the N-terminal end of envelope protein pIII (FIG. 1). […] In the phage libraries, the sequence encoding the peptide originates from a sequence degenerated in each one of the 15 positions with the 20 natural amino acids, thus allowing the presentation of 1.1×10^12 possible sequences of 15 amino acids in different phages. The physical ratio, 1:1, between the peptide sequence and the DNA encoding it within the bacteriophage allows the selection (from a broad range of variants) of those sequences that specifically bind to TGF-β1. This process is carried out via an in vitro selection protocol known as “biopanning”.
This technique involves incubating a set of phages representative (to practical effects) of all the 15-aa variants, in a plate blocked with streptavidin (10 μg/ml in 0.1 M NaHCO3, during 2 h at room temperature) to which biotinylated TGF-β1 is added. […] TGF-β1 contacts the peptides carried by the phages at a concentration of […]. After about 12 hours incubation, unbound phages are eliminated by 5 washings with PBS/Tween (phosphate buffered saline/polyoxyalkylene derivatives of sorbitan fatty acid esters). […] The eluted phages are then amplified by infection in a bacterial strain (E. coli). The process is repeated three cycles so that an enrichment in the content of phages which specifically bind, and with high affinity, to TGF-β1 is achieved (FIG. 3). […] Thus, the phages selected in each cycle show more and more affinity for TGF-β1. At the end of the process, phages which have been selected for their affinity for TGF-β1, are sequenced by using primers, after isolation by tetracycline resistance of the genetically modified phages after infecting E. coli cells. […] The number of times which a sequence is repeated, corresponding to a 15 amino acids peptide carried by each clone, from the total of sequenced colonies is an indication of the degree of relative affinity of said 15 amino acids sequence for TGF-β1.
The selection of clones, obtained from the “biopanning”, was carried out by selection of the bacterial colonies infected with the phages in the presence of a bacterial antibiotic; the bacteria resistance is acquired by a tetracycline resistance gene encoded by the phage genome. Thus, only those colonies infected with bacteriophages are able to grow. This means that each colony contains the genome of only one phage coding for only one peptide presented in its surface.
A total number of 108 colonies of phage-infected bacteria were obtained from the last selection cycle of “biopanning”. The sequence of the regions coding for the peptides present in the pIII protein was carried out using primers identified with SEQ ID NO: 23. This table also reflects the number of colonies (clones) carrying said sequences.
The number of clones (colonies) of each sequence gives an approximate indication of the degree of affinity of the peptide for TGF-β1, that is, the more colonies the more binding affinity.
Target sequence in this assay (P01137 279-390 limits assumed, species assumed): as the sequence (P01137 279-390 limits assumed) above

T1 sequence (P04202 279-390 limits assumed): as the sequence (P01137 279-390 limits assumed) above, with A75S counted along it

Sequence: KRIWFIPRSSWYERA [SEQ ID NO: 17, KRIWFIPRSSWYERA]
- % Inhibition of type I collagen mRNA induction (in vivo TGF-β1 biological activity) ([1]; Balb/C mice, oral CCl4, 50 μg of peptide every 24 h, sacrifice after 72 hours): 93.09 ± 9.6%
- inhibition of the biological activity of TGF-β1 in vivo (in words) ([1]; acute liver damage, type I collagen mRNA): most active peptide; also recorded: much greater extent; also recorded: inhibitory capacity; also recorded: capable of inhibiting the expression of collagen type I mRNA
- α-SMA expression induced by TGF-β1 [2]: inhibited
- No. colonies [3]: 3

— patent publication US8158589B2, “Peptides with the capacity to bind to transforming growth factor β1 (TGF-β1)” (Proyecto Biomedicine Cima, S.L., priority 2003, dated 2012)
